Six molecules from patent US20240343699A1, “DERIVATIVES OF SUBSTITUTED MORPHOLINES AND USES THEREOF” (Supernus Pharmaceuticals, Inc., priority 2023, published 2024) can be followed below.

Each structure is given as a SMILES string. Where a name gives a salt, the structure may show the parent alone.

For one series, the system named is cognitive flexibility. In words: Operant set-shifting test against PCP. It counts as in vivo, male Wistar rats. How it is done:
This assay serves as a model of impaired executive function associated with neuropsychiatric disorders like schizophrenia. The aim of this study was to evaluate COMPOUND C to reverse deficits observed with PCP on cognitive flexibility using the operant set-shifting test in the rat.
Substances & Formulation.
Doses were prepared by separate weighing (W/V). COMPOUND C formulations were prepared fresh on each dosing day and dosing was completed within 8 hours of formulation. Phencyclidine (PCP) hydrochloride, white powder, was dissolved in physiological saline by magnetic stirring, fresh each day of dosing.
Test System. 78 male Wistar rats were supplied for this study. • 72 rats, 8-9 weeks old, weighing 218-299 g at the beginning of the visual discrimination were submitted to the entire behavioral testing and assigned to match groups based on their performance during the second visual discrimination session. • 6 spare rats were submitted to lever pressing, side bias and visual discrimination but were discarded for the testing period (set-shift and reversal)
The experimental protocol which detects effects on behavioral flexibility follows that described by Floresco et al. (Behav. Brain Res., 190, 85-96 (2008)).
Apparatus. The apparatus consists of standard Med Associates ENV-008 Skinner boxes (30×25×30 cm) fitted with a house light, two retractable levers and a food pellet dispenser. The levers are located on either side of the food receptacle connected to the pellet dispenser. A light emitting diode stimulus light is positioned centrally above each lever and served as a stimulus for visual-cue discrimination learning.
Acquisition of lever-pressing (training). The aim of this phase was to train animals to lever-press to receive a food pellet reward.
Side bias. On the last day of training, the side bias for the rat was determined. The session was similar to the lever pressing session except that both levers were inserted into the chamber together (i.e. 90 levers presentations every 20 seconds). Again, the stimulus lights above each of the levers were not illuminated during this training session. On the first levers presentation, a food pellet was delivered after responding on either lever. Upon subsequent insertion of the levers, food was delivered only if the rat responded on the lever opposite to the one chosen initially. If the rat chose the same lever to the initial choice, no food was delivered. This continued until the rat chose the lever opposite to the one chosen initially. After choosing both levers, a new trial commenced. Thus, one trial for the side bias procedure consisted of responded on both levers. The sessions terminated after 90 levers presentations or after completion of 21 trials.
Visual-cue discrimination learning. After determining the side bias, animals were submitted to visual-cue discrimination learning.
A session began with both levers retracted and the chamber in darkness (the inter-trial state). Every 20 seconds, a trial began with illumination of one of the stimulus lights above one of the levers. 3 seconds later, the house light was illuminated, and both levers were inserted into the chamber. […] After food delivery, the house light remained on for another 4 seconds, after which the chamber returned to the inter-trial state. If the rat responded on the other lever (incorrect response), both levers retracted immediately without food delivery and the chamber reverted to the inter-trial state.

A further series deals with immobility. In words: Tail suspension test (TST). Particulars: imipramine 15 mg/kg IP, vs vehicle (p=0.01).
The test system of series [1] is recognition memory. In words: Novel object recognition, scopolamine-impairment model, 3 hr retention interval.
Series [2] deals with recognition memory. In words: Spontaneous novel object recognition (NOR), 48 hr retention interval. Particulars: donepezil 2.0 mg/kg i.p., 48 hr delay. The format is in vivo, male Wistar rats.
A further series has as its system rat red blood cells. In words: Hemolysis in rat blood. Particulars: rat blood, 60 min exposure; read-out: EC50 (% RBC lysis). It counts as cell-based. As to the method: Stability of Test Articles at Different pH Values. 10 mM stock solutions of COMPOUND A were prepared in DMSO. From this stock solution, a single concentration in a 10 μL aliquot was added to three fluid matrices: SGF at pH 2.0 (gastric), SIF at pH 6.0 (upper intestine), and PBS at 7.4 (systemic). The final volume was 1 mL (0.1 mM). The preparations were then incubated at 37° C. and samples were collected at 0, 15, 30, 60, and 120 min for analysis of parent material by LC/MS/MS. The collected sample was quenched in acetonitrile/0.1% formic acid mixture. Red Blood Cell (RBC): Human and rat blood were centrifuged to separate out red blood cells at […] for 15 min. The upper plasma level was aspirated with a micropipette and placed in a bleach solution for disposal. The RBC pellet was resuspended in sterile isotonic saline. The pellet was gently resuspended by rocking the tube. The sample was then centrifuged again to collect the RBC pellet and then resuspended and washed one more time following the same procedure. A total of three was done. Following the last wash and centrifugation, the RBCs were resuspended with PBS; and mixed by inversion. Aliquots of the resuspended and washed RBCs were then placed into 4 reaction tubes. These tubes were centrifuged to collect the RBCs. The fluid level was marked on each tube, then the supernatant was aspirated off and the cells resuspended with room temperature PBS pH 7.4 to the original mark. An aliquot of the RBC suspension was added to four sterile tubes containing PBS pH 7.4 at room temperature.
Stability in Human and Rat Red Blood cells and Hemolysis. […] After centrifugation, 70 μL of supernatant (without disturbing the pellet) was transferred to a clean and clear polystyrene flat bottomed 96-well plate and the absorbance of the sample at a single wavelength was measured using a Bio Tech Synergy Hl Plate Reader at a wavelength of 410 nm. […] Stability was measured by measuring loss of parent compound using LC/MS/MS.

Setting [3] is: PCP 2 mg/kg s.c., first reversal session.
Setting [4] is: PCP 2 mg/kg s.c., first set-shift session.
Where [5] appears, read: PCP 2 mg/kg s.c., first set-shift to response discrimination session.

Method for immobility: The tail suspension test is an experimental method used in scientific research to measure a state of being helpless in rodents, especially in mice. It is based on the observation that if a mouse is subjected to short term inescapable stress then the mouse will stop struggling. Immobility is quantified by measuring the amount of time lacking whole body activity.
The immobilized time in the last 4 min of the TST, which indicated depression-like behavior, was quantified using offline video manual scoring in a blinded manner.
Animals. Adult (7 to 8 weeks) male mice (C57Bl/6, Charles River Laboratories) were used in the study. Upon arrival, animals were group-housed (5/cage) with access to food and water ad libitum. Animals were maintained on a 12/12-hour light/dark cycle in a temperature—(22±2° C.) and humidity—(approx. 50%) controlled room. Animals were numbered consecutively by tail marks. Each cage was identified by a card indicating the study number, sex, animal numbers and date of birth.
Test article formulations were prepared fresh based on weight-to-volume in the vehicle on each dosing day. […] The appearance of the formulations was clear, with no precipitations. […] A vehicle group was included for comparison.
Monitoring. A piezoelectric sensor operated by the SmartCage system was utilized and video recording was conducted for scoring. After animals acclimated to the testing room, an individual mouse's tail was placed onto the piezoelectric sensor-board and the mouse was hung upside down, which signaled the immediate start of the recording of struggle activity, and it lasted for 6 min. The mouse was then taken off and returned to the home cage. The immobilized time, indicating depression-like behavior, was quantified using manual scoring of the video recordings for the period from 120 seconds to 360 seconds during TST. The percent immobility time was calculated: (immobility time/240 seconds)*100.
The immobilized time in the last 4 min of the TST, which indicates depression-like behavior, was quantified using offline video manual scoring in a blinded manner.
Animals. Adult (8 weeks, approximately 20-25 g) male mice (C57Bl/6, Vendor: Charles River Laboratories) were used in the study. Upon arrival, animals were group-housed (5/cage) with access to food and water ad libitum. Animals were maintained on a 12/12-hour light/dark cycle in a temperature—(22±2° C.) and humidity—(35-50%) controlled room. Animals were numbered consecutively by tail ID. Each cage was identified by a colored card indicating the study number, sex, animal numbers and date of birth.
Test article formulations were prepared fresh based on weight-to-volume in the vehicle on dosing day. […] The appearance of the formulations was clear, with no precipitations.
The tail suspension test is an experimental method used in scientific research to measure a state of being helpless in rodents, especially in mice. It is based on the observation that if a mouse is subjected to short term inescapable stress then the mice will give up struggling. “Immobility” is quantified by measuring the amount of time during which the animal has no whole-body activity.
Tail Suspension Test (TST). A piezoelectric sensor operated by the SmartCage system was utilized and video recording was conducted for scoring. Once animals were acclimated to the testing room, the TST was initiated by placing the tail of the test mouse onto the piezoelectric sensor-board and hanging the mouse upside down. The recording period was initiated once the mouse was upside down and lasted for 6 min. After the recording period, the mouse was removed from the recording device and returned to its home cage.

In the case of `c1ccc(C2(N3CCCCC3)CCCCC2)cc1` [PCP, Phencyclidine (PCP) hydrochloride], in the series with cognitive flexibility (setting [3]), the “number of errors vs saline controls” value is “+66%” and the “number of trials to reach the criterion vs saline controls” value was “+35%”. Moreover, in the series on cognitive flexibility (setting [4]), the “perseverative errors (average)” value is given as 35.8 and the “total errors (average)” value turned out to be 37.8. Moreover, in the series with cognitive flexibility (setting [5]), the “number of errors vs saline controls” value is on record as “+47%” and the “number of trials to reach the criterion vs saline controls” value is given as “+45%”. In addition, the “number of trials vs saline controls” value in the series on cognitive flexibility (PCP, second session (drug-free)) is given as “+31%”.
`CN(C)CCCN1c2ccccc2CCc2ccccc21` [imipramine, reference compound]: in the series on immobility, the percent immobility time result was “significantly reduced immobility time”.
For `CN1[C@@H]2C[C@@H](OC(=O)[C@H](CO)c3ccccc3)C[C@H]1[C@@H]1O[C@@H]12` [scopolamine, (−)-scopolamine hydrobromide], the “d2 ratios vs vehicle-controls” value in the series with recognition memory [1] (vehicle-scopolamine 0.2 mg/kg i.p.) was “significantly impaired compared to the vehicle-controls”.
On to `COc1cc2c(cc1OC)C(=O)C(CC1CCN(Cc3ccccc3)CC1)C2` (stereo not shown) [donepezil, reference compound], for which, in the series on recognition memory [2], the “preference for the novel object (exploration times)” value is given as “significant preference for the novel object”.
`Cc1ccc(Sc2ccccc2N2CCNCC2)c(C)c1` [vortioxetine]: the “memory enhancement (attenuation of the scopolamine impairment)” value with recognition memory [1] (vortioxetine 10 mg/kg s.c. + scopolamine 0.2 mg/kg i.p., 3 hr delay) is recorded as “not associated with significant memory enhancement”. The adverse reactions entry with recognition memory [1] (vortioxetine-scopolamine combination, three of the twelve rats, A/A session) is “adverse reactions during the A/A session (thigmotaxis, vocalizations, labored breathing)”.
For the molecule `C[C@@H]1[C@H](O)[C@@H](C)/C=C/C=C/C=C/C=C/C=C/C=C/C=C/[C@H](O[C@@H]2O[C@H](C)[C@@H](O)[C@H](N)[C@@H]2O)C[C@@H]2O[C@](O)(C[C@@H](O)C[C@@H](O)[C@H](O)CC[C@@H](O)C[C@@H](O)CC(=O)O[C@H]1C)C[C@H](O)[C@H]2C(=O)O` [amphotericin B, reference compound], the concentration giving a half-maximal response (EC50) in the series on rat red blood cells was determined as 4.73 µM.
